Experimental findings from US9988430B2, “Stable GLP-1 based GLP-1/glucagon receptor co-agonists” (Novo Nordisk A/S, priority 2014, dated 2018) are described below.

Data set [1] is described as follows: Assay (V): chemical stability assessment by RP-UPLC. Type of data set: physicochemical. Conditions: 14 days at 37° C. in phosphate buffer (pH 7.3). A digest of the protocol:
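Lyophilized peptide dissolved in 8 mM phosphate pH 8.6, adjusted to pH 7.3, final 333 μM, held 14 days at 5° C and 37° C. Purity is main-peak area % by RP-UPLC with UV detection at 215 nm. Degradation is the 5° C minus 37° C purity difference divided by the 5° C purity.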

For the next data set, the target named is T1, human GLP-1 receptor (Homo sapiens, UniProt P43220).
T1 construct: expressed in transfected cells; host or cells: membranes of BHK cells, parent line BHKTS13, clone FCW467-12A
T1 sequence (P43220 24-463): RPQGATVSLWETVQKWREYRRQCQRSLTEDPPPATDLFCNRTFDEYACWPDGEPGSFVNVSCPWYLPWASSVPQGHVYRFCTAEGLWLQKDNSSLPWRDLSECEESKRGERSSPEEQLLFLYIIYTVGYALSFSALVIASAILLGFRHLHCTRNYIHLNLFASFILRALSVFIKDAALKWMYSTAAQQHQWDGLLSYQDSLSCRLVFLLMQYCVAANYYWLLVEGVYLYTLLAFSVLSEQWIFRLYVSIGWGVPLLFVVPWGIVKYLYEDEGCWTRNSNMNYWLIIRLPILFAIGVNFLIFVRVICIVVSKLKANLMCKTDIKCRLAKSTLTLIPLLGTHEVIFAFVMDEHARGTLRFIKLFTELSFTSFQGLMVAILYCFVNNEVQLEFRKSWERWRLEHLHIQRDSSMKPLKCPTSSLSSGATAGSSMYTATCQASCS
Description: Assay (II)(a): GLP-1 receptor binding, [125I]GLP-1 displacement, SPA on BHK membranes. Particulars: displacement of [125I]GLP-1, membranes with human GLP-1 receptor; read-out: IC50 GLP-1R. In outline: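 Membranes from BHK cells expressing human GLP-1 receptor with WGA SPA beads, [125I]GLP-1(7-36)NH2 (480 pM added solution) and compound in HEPES pH 7.4 buffer with EGTA, MgCl2, Tween 20. Incubated 2 h at 30° C; SPA counts fitted by non-linear regression to IC50 in nM.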

*1 amine or outer side, *2 acyl side, *3 side chain or, on linkers, in order; H or OH if unused. Where a SMILES comes first, the peptide text is derived from it. Bridges are numbered along the chain shown (N, C = ends). Roman numbers before positions name the chains, in order. Side-chain parts run from the residue outwards. [ ]: non-standard residue; d: D form. The star is where a group is joined. C18 diacid = O=C(O)CCCCCCCCCCCCCCCCC(=O)*; γGlu = O=C(O)[C@H](CCC(=O)[*:2])N[*:1]; Desaminohistidyl = O=C(CCc1c[nH]cn1)*; Ac4c = NC1(C(=O)O)CCC1; AEEA = NCCOCCOCC(=O)O; Aib = CC(C)(N)C(=O)O

In general, IC50 refers to the midpoint of a concentration-inhibition curve. As to `CC[C@H](C)[C@H](NC(=O)[C@H](Cc1ccccc1)NC(=O)[C@H](CCC(=O)O)NC(=O)[C@H](CCCNC(=N)N)NC(=O)[C@H](C)NC(=O)[C@H](C)NC(=O)[C@H](CCC(N)=O)NC(=O)[C@H](CCC(=O)O)NC(=O)[C@H](CCC(=O)O)NC(=O)[C@H](CC(C)C)NC(=O)[C@H](Cc1ccc(O)cc1)NC(=O)[C@H](CCCCN)NC(=O)[C@H](CO)NC(=O)[C@@H](NC(=O)[C@H](CC(=O)O)NC(=O)[C@H](CO)NC(=O)[C@@H](NC(=O)[C@H](Cc1ccccc1)NC(=O)[C@@H](NC(=O)CNC(=O)[C@H](Cc1c[nH]cn1)NC(=O)C(C)(C)NC(=O)CCc1c[nH]cn1)[C@@H](C)O)[C@@H](C)O)C(C)C)C(=O)N[C@@H](C)C(=O)N[C@@H](Cc1c[nH]c2ccccc12)C(=O)N[C@@H](CC(C)C)C(=O)N[C@@H](CC(C)C)C(=O)N[C@@H](CCCCNC(=O)COCCOCCNC(=O)COCCOCCNC(=O)CC[C@H](NC(=O)CCCCCCCCCCCCCCCCC(=O)O)C(=O)O)C(=O)N[C@H](C(N)=O)[C@@H](C)O` [Example 12, N^ε34-[2-[2-[2-[[2-[2-[2-[[(4S)-4-carboxy-4-(17-carboxyheptadecanoylamino)butanoyl]amino]ethoxy]ethoxy]acetyl]amino]ethoxy]ethoxy]acetyl]-[Imp7,Aib8,His9,Lys18,Glu22,Arg26,Leu33,Thr35]-GLP-1-(7-35)-peptide amide] (Desaminohistidyl-[Aib]HGTFTSDVSKYLEEQAAREFIAWLLK([AEEA-AEEA-γGlu-C18 diacid])T-NH2), in data set [1], the “Chemical stability: Chemical degradation over 14 days at 37° C.” value (from here on “Chemical stability … over 14 days at 37° C.”) amounted to 4.4%. Further, the IC50 on human GLP-1 receptor came out at 0.7 nM.

`CC[C@H](C)[C@H](NC(=O)[C@H](Cc1ccccc1)NC(=O)[C@H](CCC(=O)O)NC(=O)[C@H](CCCNC(=N)N)NC(=O)[C@H](C)NC(=O)[C@H](C)NC(=O)[C@H](CCCNC(=N)N)NC(=O)CNC(=O)[C@H](CCC(=O)O)NC(=O)[C@H](CC(C)C)NC(=O)[C@H](Cc1ccc(O)cc1)NC(=O)[C@H](CCCCN)NC(=O)[C@H](CO)NC(=O)[C@@H](NC(=O)[C@H](CC(=O)O)NC(=O)[C@H](CO)NC(=O)[C@@H](NC(=O)[C@H](Cc1ccccc1)NC(=O)[C@@H](NC(=O)CNC(=O)[C@H](Cc1c[nH]cn1)NC(=O)C1(NC(=O)CCc2c[nH]cn2)CCC1)[C@@H](C)O)[C@@H](C)O)C(C)C)C(=O)N[C@@H](C)C(=O)N[C@@H](Cc1c[nH]c2ccccc12)C(=O)N[C@@H](CC(C)C)C(=O)N[C@@H](CC(C)C)C(=O)N[C@@H](CCCCNC(=O)CNC(=O)[C@H](CO)NC(=O)[C@H](CCC(=O)O)NC(=O)CNC(=O)[C@H](CO)NC(=O)CC[C@H](NC(=O)CC[C@H](NC(=O)CCCCCCCCCCCCCCCCC(=O)O)C(=O)O)C(=O)O)C(=O)N[C@H](C(N)=O)[C@@H](C)O` [Example 20, N^ε34-[2-[[(2S)-2-[[(2S)-4-carboxy-2-[[2-[[(2S)-2-[[(4S)-4-carboxy-4-[[(4S)-4-carboxy-4-(17-carboxyheptadecanoylamino)butanoyl]amino]butanoyl]amino]-3-hydroxypropanoyl]amino]acetyl]amino]butanoyl]amino]-3-hydroxypropanoyl]amino]acetyl]-[Imp7,Acb8,His9,Lys18,Arg23,Arg26,Leu33,Thr35]-GLP-1-(7-35)-peptide amide] (I: Desaminohistidyl-[Ac4c]HGTFTSDVSKYLEGRAAREFIAWLLKT-NH2 / II: {C18 diacid-γGlu-γGlu}-SGESG; amide I:27-II:C): the “Chemical stability … over 14 days at 37° C.” value in data set [1] was 0.4%. Also, the half-maximal inhibitory concentration (IC50) at human GLP-1 receptor worked out at 0.3 nM.

On to `CC[C@H](C)[C@H](NC(=O)[C@H](Cc1ccccc1)NC(=O)[C@H](CCC(=O)O)NC(=O)[C@H](CCCNC(=N)N)NC(=O)[C@H](C)NC(=O)[C@H](C)NC(=O)[C@H](CCCNC(=N)N)NC(=O)[C@H](C)NC(=O)[C@H](CCC(=O)O)NC(=O)[C@H](CC(C)C)NC(=O)[C@H](Cc1ccc(O)cc1)NC(=O)[C@H](CCCCN)NC(=O)[C@H](CO)NC(=O)[C@@H](NC(=O)[C@H](CC(=O)O)NC(=O)[C@H](CO)NC(=O)[C@@H](NC(=O)[C@H](Cc1ccccc1)NC(=O)[C@@H](NC(=O)CNC(=O)[C@H](Cc1c[nH]cn1)NC(=O)C(C)(C)NC(=O)CCc1c[nH]cn1)[C@@H](C)O)[C@@H](C)O)C(C)C)C(=O)N[C@@H](C)C(=O)N[C@@H](Cc1c[nH]c2ccccc12)C(=O)N[C@@H](CC(C)C)C(=O)N[C@@H](CC(C)C)C(=O)N[C@@H](CCCCNC(=O)CC[C@H](NC(=O)COCCOCCNC(=O)COCCOCCNC(=O)CC[C@H](NC(=O)CC[C@H](NC(=O)CCCCCCCCCCCCCCCCC(=O)O)C(=O)O)C(=O)O)C(=O)O)C(=O)NCC(=O)NCC(=O)NCC(=O)O` [Example 31, N^ε34-[(4S)-4-carboxy-4-[[2-[2-[2-[[2-[2-[2-[[(4S)-4-carboxy-4-[[(4S)-4-carboxy-4-(17-carboxyheptadecanoylamino)butanoyl]amino]butanoyl]amino]ethoxy]ethoxy]acetyl]amino]ethoxy]ethoxy]acetyl]amino]butanoyl]-[Imp7,Aib8,His9,Lys18,Ala22,Arg23,Arg26,Leu33,Gly36]-GLP-1-(7-37)-peptide] (Desaminohistidyl-[Aib]HGTFTSDVSKYLEARAAREFIAWLLK([γGlu-AEEA-AEEA-γGlu-γGlu-C18 diacid])GGG-OH), for which the “Chemical stability … over 14 days at 37° C.” value in data set [1] turned out to be 0.1%. The IC50 on human GLP-1 receptor stood at 0.3 nM.
